Activity calls are given as the source filed them. No cut-off for these calls is given here.
Key:
[1] = species on record: Homo sapiens; test: Binding affinity to 14C3 DNA triplex assessed as stabilization of triplex DNA form
[2] = species on record: Homo sapiens; test: Binding affinity to 14C3 DNA triplex assessed as melting temperature for transition from triplex to duplex DNA forms by UV absorption spectrometry
[3] = species on record: Homo sapiens; test: Binding affinity to 14C3 DNA triplex assessed as melting temperature for transition from duplex to single strand DNA forms by UV absorption spectrometry
[4] = species on record: Homo sapiens; test: Binding affinity to 14C3 DNA triplex assessed as melting temperature change from duplex to single strand DNA forms by UV absorption spectrometry
[5] = species on record: Homo sapiens; test: Binding affinity to 14C3 DNA triplex assessed as melting temperature change from triplex to duplex DNA forms by UV absorption spectrometry

Row | Activity [1] | Tm [2] | Tm [3] | ΔTm [4] | ΔTm [5] | SMILES
1 | Active | – | – | – | – | COc1ccc2c(ccc3c2[nH]c2c(C)cnc(NCCCN(C)CCCN)c23)c1
2 | – | 39.8 °C | 63.8 °C | 4.8 °C | 19.3 °C | NCCCNc1cc2c(cc1F)C(=O)c1nc3ccccc3c(=O)n1-2
3 | – | 33.5 °C | 64.7 °C | 5.7 °C | 13 °C | NCCCNc1ccc2c(c1)-n1c(nc3ccccc3c1=O)C2=O

Second part, the compound before the results:

Row | SMILES | Activity [1] | Tm [2] | Tm [3] | ΔTm [4] | ΔTm [5]
4 | CN(CCCN)c1cc2c(cc1F)C(=O)c1nc3ccccc3c(=O)n1-2 | – | 45.3 °C | 61.8 °C | 2.8 °C | 24.8 °C
5 | CN(CCCN)c1ccc2c(c1)-n1c(nc3ccccc3c1=O)C2=O | – | 39.3 °C | 62.3 °C | 3.3 °C | 18.8 °C
6 | COc1ccc2c(ccc3[nH]c4c(C)cnc(NCCCN)c4c32)c1 | Active | – | – | – | –
